# Assay results: US20220002314A1 (priority 2018, published 2022)
# Where two headings read alike, the source gives them in different places.
# Assays:
# Human μ-opioid receptor = Human μ-opioid receptor (Homo sapiens, UniProt P35372); assay: biochemical; format: binding
# [1] = target: Human α2δ-1 subunit of Cav2.2 calcium channel (Homo sapiens, UniProt P54289); assay: biochemical; format: binding
# Human α2δ-1 subunit of Cav2.2 calcium channel, sequence (P54289 25-1103): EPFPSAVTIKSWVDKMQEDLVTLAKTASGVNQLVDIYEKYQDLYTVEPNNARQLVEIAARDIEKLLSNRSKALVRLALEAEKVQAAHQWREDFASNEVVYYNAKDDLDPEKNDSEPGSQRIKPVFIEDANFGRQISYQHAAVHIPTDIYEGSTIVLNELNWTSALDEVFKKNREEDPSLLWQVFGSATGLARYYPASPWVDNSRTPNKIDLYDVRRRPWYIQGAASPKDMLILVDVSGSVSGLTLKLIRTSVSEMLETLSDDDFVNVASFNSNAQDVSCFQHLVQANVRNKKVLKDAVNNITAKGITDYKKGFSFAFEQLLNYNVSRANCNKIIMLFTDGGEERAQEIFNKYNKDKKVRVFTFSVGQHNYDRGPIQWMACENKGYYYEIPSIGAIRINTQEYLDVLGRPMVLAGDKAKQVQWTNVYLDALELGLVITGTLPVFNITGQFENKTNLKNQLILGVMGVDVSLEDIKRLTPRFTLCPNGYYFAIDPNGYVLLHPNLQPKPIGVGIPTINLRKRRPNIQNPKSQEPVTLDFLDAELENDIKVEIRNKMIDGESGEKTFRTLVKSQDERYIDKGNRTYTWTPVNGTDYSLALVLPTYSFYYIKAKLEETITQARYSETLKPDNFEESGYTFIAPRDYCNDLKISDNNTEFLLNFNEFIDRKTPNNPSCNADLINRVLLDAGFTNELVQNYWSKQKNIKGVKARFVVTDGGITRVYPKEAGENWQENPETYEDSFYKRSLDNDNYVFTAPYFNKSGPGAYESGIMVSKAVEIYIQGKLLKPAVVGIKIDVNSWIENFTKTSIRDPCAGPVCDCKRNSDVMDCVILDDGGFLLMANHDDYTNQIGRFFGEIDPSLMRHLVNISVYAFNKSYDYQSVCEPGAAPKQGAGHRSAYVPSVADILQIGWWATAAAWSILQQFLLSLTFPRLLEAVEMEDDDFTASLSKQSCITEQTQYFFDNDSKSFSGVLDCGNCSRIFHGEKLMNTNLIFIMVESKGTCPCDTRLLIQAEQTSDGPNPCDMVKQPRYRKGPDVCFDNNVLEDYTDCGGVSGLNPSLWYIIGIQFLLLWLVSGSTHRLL
# Human μ-opioid receptor, sequence (P35372 whole entry): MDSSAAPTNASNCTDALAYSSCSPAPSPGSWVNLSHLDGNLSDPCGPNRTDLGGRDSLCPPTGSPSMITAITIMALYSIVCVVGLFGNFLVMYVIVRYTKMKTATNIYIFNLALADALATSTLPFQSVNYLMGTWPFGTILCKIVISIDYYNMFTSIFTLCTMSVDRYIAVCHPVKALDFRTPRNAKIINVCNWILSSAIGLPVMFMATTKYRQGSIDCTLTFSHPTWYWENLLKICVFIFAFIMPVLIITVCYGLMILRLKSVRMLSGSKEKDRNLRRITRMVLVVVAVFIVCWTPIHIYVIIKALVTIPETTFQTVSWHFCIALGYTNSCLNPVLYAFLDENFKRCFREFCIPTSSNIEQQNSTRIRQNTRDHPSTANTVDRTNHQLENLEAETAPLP
Compound,Ki (Human μ-opioid receptor),Ki [1],Ki (Human μ-opioid receptor; read-out: μ-binding),Ki ([1]; read-out: α2δ-1 binding),"Ki ([1]; binding to α2δ-1 subunit of voltage-gated calcium channels expressed as Ki, + also Ki>5000 nM or inhibition between 1% and 50%, read-out: α2δ-1 binding)"
"CCC[C@H](c1nc2ccc(F)cc2c(=O)n1CC)N1CCN[C@@H](C)C1 [Example 214, 3-ethyl-6-fluoro-2-((R)-1-((S)-3-methylpiperazin-1-yl)butyl)quinazolin-4(3H)-one]",100 to 500 nM,< 500 nM,,,
"CCC[C@H](c1nc2c(F)cc(OC)c(Br)c2c(=O)n1CC)N1CCNCC1 [Example 40, (R)-5-bromo-3-ethyl-8-fluoro-6-methoxy-2-(1-(piperazin-1-yl)butyl)quinazolin-4(3H)-one]",,,> 500 nM,500 to 5000 nM,
"CCC[C@H](c1nc2ccc(C(NC)c3ccccc3)cc2c(=O)n1CC)N1C[C@@H](C)N[C@@H](C)C1 (stereo partly drawn) [Example 236, 2-((R)-1-((3S,5R)-3,5-Dimethylpiperazin-1-yl)butyl)-3-ethyl-6-((methylamino)(phenyl)methyl)quinazolin-4(3H)-one]",> 500 nM,< 500 nM,,,
"COCCn1c(C(CC2CC2)N2C[C@@H](C)N[C@@H](C)C2)nc2ccccc2c1=O (stereo partly drawn) [Example 116, 2-(2-cyclopropyl-1-((3S,5R)-3,5-dimethylpiperazin-1-yl)ethyl)-3-(2-methoxyethyl)quinazolin-4(3H)-one]",,500 to 5000 nM,> 500 nM,,
"CCC[C@H](c1nc2c(F)cc(Br)cc2c(=O)n1CC)N1CCN[C@@H](C)C1 [Example 51, 6-Bromo-3-ethyl-8-fluoro-2-((R)-1-((S)-3-methylpiperazin-1-yl)butyl)quinazolin-4(3H)-one]",100 to 500 nM,< 500 nM,,,
"CCCC(c1nc2cc(Br)ccc2c(=O)n1CC)N1CCNCC1 (centres unmarked) [Example 81, 7-bromo-3-ethyl-2-(1-(piperazin-1-yl)butyl)quinazolin-4(3H)-one]",> 500 nM,< 500 nM,,,
"CCCC(c1nc2cc(-c3cccc(O)c3)ccc2c(=O)n1CC)N1C[C@@H](C)N[C@@H](C)C1 (stereo partly drawn) [Example 134, 2-(1-((3S,5R)-3,5-dimethylpiperazin-1-yl)butyl)-3-ethyl-7-(3-hydroxyphenyl)quinazolin-4(3H)-one]",> 500 nM,< 500 nM,,,
"CCCC(c1nc2ccc(Br)cc2c(=O)n1CC)C1CCNCC1 (centres unmarked) [Example 187, 6-Bromo-3-ethyl-2-(1-(piperidin-4-yl)butyl)quinazolin-4(3H)-one]",,,> 500 nM,500 to 5000 nM,
"CCC[C@@H](c1nc2cc(F)c(Br)cc2c(=O)n1CC)N1CCN[C@@H](C)C1 [Example 105, 6-Bromo-3-ethyl-7-fluoro-2-((S)-1-((S)-3-methylpiperazin-1-yl)butyl)quinazolin-4(3H)-one]",> 500 nM,< 500 nM,,,
"CCC[C@H](c1nc2ccc(F)cc2c(=O)n1CCC)N1CCN[C@@H](C)C1 [Example 202, 6-fluoro-2-((R)-1-((S)-3-methylpiperazin-1-yl)butyl)-3-propylquinazolin-4(3H)-one]",> 500 nM,< 500 nM,,,
"CCCC(c1nc2ccc(Br)cc2c(=O)n1C)N1C[C@@H](C)N[C@@H](C)C1 (stereo partly drawn) [Example 16, 6-bromo-2-(1-((3S,5R)-3,5-dimethylpiperazin-1-yl)butyl)-3-methylquinazolin-4(3H)-one]",> 500 nM,< 500 nM,,,
"CCC[C@H](c1nc2cc(F)c(Br)cc2c(=O)n1C)N1CCN[C@@H](C)C1 [Example 62, 6-Bromo-7-fluoro-3-methyl-2-((R)-1-((S)-3-methylpiperazin-1-yl)butyl)quinazolin-4(3H)-one]",100 to 500 nM,< 500 nM,,,
"CCC[C@H](c1nc2ccc(Br)cc2c(=O)n1CC)[C@H]1CCN[C@@H](C)C1 [Example 191, 6-bromo-3-ethyl-2-((S)-1-((2S,4S)-2-methylpiperidin-4-yl)butyl)quinazolin-4(3H)-one]",100 to 500 nM,< 500 nM,,,
"CCC[C@H](c1nc2ccc(OC)cc2c(=O)n1CC)N1CCN[C@H](C)C1 [Example 211, 3-ethyl-6-methoxy-2-((R)-1-((R)-3-methylpiperazin-1-yl)butyl)quinazolin-4(3H)-one]",> 500 nM,< 500 nM,,,
"CCCC(c1nc2cc(C(=O)O)ccc2c(=O)n1C)N1C[C@@H](C)N[C@@H](C)C1 (stereo partly drawn) [Example 178, 2-(1-((3S,5R)-3,5-Dimethylpiperazin-1-yl)butyl)-3-methyl-4-oxo-3,4-dihydroquinazoline-7-carboxylic acid]",,,> 500 nM,500 to 5000 nM,
"CCC[C@@H](c1nc2ccc(Br)cc2c(=O)n1CC)N1CCN[C@@H](CF)C1 [Example 56, 6-bromo-3-ethyl-2-((S)-1-((R)-3-(fluoromethyl)piperazin-1-yl)butyl)quinazolin-4(3H)-one]",> 500 nM,> 5000 nM,,,
"CCCC(c1nc2ccccc2c(=O)n1CCOC)N1C[C@@H](C)N[C@@H](C)C1 (stereo partly drawn) [Example 113, 2-(1-((3S,5R)-3,5-Dimethylpiperazin-1-yl)butyl)-3-(2-methoxyethyl)quinazolin-4(3H)-one]",> 500 nM,< 500 nM,,,

Compound,Ki (Human μ-opioid receptor),Ki [1],Ki (Human μ-opioid receptor; read-out: μ-binding),Ki ([1]; read-out: α2δ-1 binding),"Ki ([1]; binding to α2δ-1 subunit of voltage-gated calcium channels expressed as Ki, + also Ki>5000 nM or inhibition between 1% and 50%, read-out: α2δ-1 binding)"
"CCCC(c1nc2ccc(Br)c(C)c2c(=O)n1CC)N1C[C@@H](C)N[C@@H](C)C1 (stereo partly drawn) [Example 21, 6-bromo-2-(1-((3S,5R)-3,5-dimethylpiperazin-1-yl)butyl)-3-ethyl-5-methylquinazolin-4(3H)-one]",> 500 nM,< 500 nM,,,
"CCC[C@H](c1nc2ccc(N3C[C@@H](C)OC4(CCN(CCc5ccccc5)CC4)C3)cc2c(=O)n1CC)N1C[C@@H](C)N[C@@H](C)C1 [Example 157, 2-((R)-1-((3S,5R)-3,5-dimethylpiperazin-1-yl)butyl)-3-ethyl-6-((R)-2-methyl-9-phenethyl-1-oxa-4,9-diazaspiro[5.5]undecan-4-yl)quinazolin-4(3H)-one]",> 500 nM,,,,500 to 5000 nM
"CCC[C@@H](c1nc2ccc(O)cc2c(=O)n1CC)N1C[C@@H](C)N[C@@H](C)C1 [Example 36, 2-((S)-1-((3S,5R)-3,5-dimethylpiperazin-1-yl)butyl)-3-ethyl-6-hydroxyquinazolin-4(3H)-one]",> 500 nM,500 to 5000 nM,,,
"CCCC(c1nc2ccc(O)cc2c(=O)n1CC)N1C[C@@H](C)N[C@@H](C)C1 (stereo partly drawn) [Example 12, 2-(1-((3S,5R)-3,5-dimethylpiperazin-1-yl)butyl)-3-ethyl-6-hydroxyquinazolin-4(3H)-one]",> 500 nM,< 500 nM,,,
"CCCC(c1nc2ccc(NCC)cc2c(=O)n1CC)N1C[C@@H](C)N[C@@H](C)C1 (stereo partly drawn) [Example 24, 2-(1-((3S,5R)-3,5-dimethylpiperazin-1-yl)butyl)-3-ethyl-6-(ethylamino)quinazolin-4(3H)-one]",> 500 nM,< 500 nM,,,
"CCCCC(c1nc2ccccc2c(=O)n1CCOC)N1C[C@@H](C)N[C@@H](C)C1 (stereo partly drawn) [Example 115, 2-(1-((3S,5R)-3,5-dimethylpiperazin-1-yl)pentyl)-3-(2-methoxyethyl)quinazolin-4(3H)-one]",,500 to 5000 nM,> 500 nM,,
"CCCC(c1nc2ccc(CN(C)Cc3ccccc3)cc2c(=O)n1CC)N1C[C@@H](C)N[C@@H](C)C1 (stereo partly drawn) [Example 183, 6-((benzyl(methyl)amino)methyl)-2-(1-((3S,5R)-3,5-dimethylpiperazin-1-yl)butyl)-3-ethylquinazolin-4(3H)-one]",> 500 nM,< 500 nM,,,
"CCC[C@H](c1nc2ccc(Br)cc2c(=O)n1CC)N1CCN[C@@H](C)C1 [Example 97, 6-Bromo-3-ethyl-2-((R)-1-((S)-3-methylpiperazin-1-yl)butyl)quinazolin-4(3H)-one]",100 to 500 nM,< 500 nM,,,
"CCC[C@H](c1nc2ccc(Br)cc2c(=O)n1C)N1CCN[C@@H](C)C1 [Example 41, 6-Bromo-3-methyl-2-((R)-1-((S)-3-methylpiperazin-1-yl)butyl)quinazolin-4(3H)-one]",100 to 500 nM,< 500 nM,,,
"CCCC(c1nc2ccccc2c(=O)n1CCN(C)CCCc1ccccc1)N1C[C@@H](C)N[C@@H](C)C1 (stereo partly drawn) [Example 130, 2-(1-((3S,5R)-3,5-dimethylpiperazin-1-yl)butyl)-3-(2-(methyl(3-phenylpropyl)amino)ethyl)quinazolin-4(3H)-one]",,,> 500 nM,500 to 5000 nM,
"CCC[C@H](c1nc2c(F)cc(OC)cc2c(=O)n1CC)N1CCNCC1 [Example 38, (R)-3-ethyl-8-fluoro-6-methoxy-2-(1-(piperazin-1-yl)butyl)quinazolin-4(3H)-one]",100 to 500 nM,< 500 nM,,,
"CCCC(c1nc2ccccc2c(=O)n1CCN(C)C)N1C[C@@H](C)N(C)[C@@H](C)C1 (stereo partly drawn) [Example 131, 3-(2-(Dimethylamino)ethyl)-2-(1-((3S,5R)-3,4,5-trimethylpiperazine-1-yl)butyl)quinazolin-4(3H)-one]",,,> 500 nM,> 5000 nM,
"CCCC(c1nc2ccc(Br)cc2c(=O)n1CCC(=O)OCC)N1C[C@@H](C)N[C@@H](C)C1 (stereo partly drawn) [Example 122, ethyl 3-(6-bromo-2-(1-((3S,5R)-3,5-dimethylpiperazin-1-yl)butyl)-4-oxoquinazolin-3(4H)-yl)propanoate]",,,> 500 nM,500 to 5000 nM,
"CCC[C@@H](c1nc2ncc(Br)cc2c(=O)n1CC1CC1)N1CCN[C@@H](C)C1 [Example 74, 6-Bromo-3-(cyclopropylmethyl)-2-((S)-1-((S)-3-methylpiperazin-1-yl)butyl)pyrido[2,3-d]pyrimidin-4(3H)-one]",> 500 nM,> 5000 nM,,,
"CCC[C@H](c1nc2ccccc2c(=O)n1CC)N1CCN[C@@H](C)C1 [Example 43, 3-Ethyl-2-((R)-1-((S)-3-methylpiperazin-1-yl)butyl)quinazolin-4(3H)-one]",> 500 nM,< 500 nM,,,
"CCC[C@@H](c1nc2ccc(Br)cc2c(=O)n1CC)[C@@H]1CCN[C@@H](C)C1 [Example 192, 6-bromo-3-ethyl-2-((R)-1-((2S,4R)-2-methylpiperidin-4-yl)butyl)quinazolin-4(3H)-one]",> 500 nM,> 5000 nM,,,
"CCCC(c1nc2ccccc2c(=O)n1CCN(C)C)N1C[C@@H](C)N[C@@H](C)C1 (stereo partly drawn) [Example 128, 3-(2-(Dimethylamino)ethyl)-2-(1-((3S,5R)-3,5-dimethylpiperazin-1-yl)butyl)quinazolin-4(3H)-one]",,,> 500 nM,500 to 5000 nM,
